ChEMBL document CHEMBL3120074, “p-Terphenyl O-β-glucuronides, DNA topoisomerase inhibitors from Streptomyces sp. LZ35ΔgdmAI” (2014)
The source made the active and inactive calls. The calls are words filed in the database; no cut-off is given here.

How the values were obtained:
Bos taurus = organism: Bos taurus; experiment: Inhibition of calf thymus DNA topoisomerase 1-mediated relaxation of supercoiled pBR322 DNA at 100 uM after 30 mins by agarose gel electrophoresis
[1] = tested on: Mycolicibacterium smegmatis; experiment: Antibacterial activity against Mycobacterium smegmatis MC2 155 at 30 ug/disc after 24 hrs by paper disc diffusion assay; assay type: functional; conditions: str. MC2 155, 24 h, read-out: DIZ
[2] = target: DNA topoisomerase 2-alpha (Homo sapiens) (UniProt P11388); experiment: Inhibition of human recombinant DNA topoisomerase 2alpha-mediated relaxation of supercoiled pBR322 DNA at 100 uM after 30 mins by agarose gel electrophoresis
[3] = Antifungal activity against Monilia albican ATCC 10231 at 30 ug/disc after 48 hrs by paper disc diffusion assay; assay type: functional
Rhizoctonia solani = experiment: Antifungal activity against Rhizoctonia solani GXE4 at 30 ug/disc after 48 hrs by paper disc diffusion assay; assay type: functional, organism-based
Globisporangium ultimum = experiment: Antifungal activity against Pythium ultimum PR9.00318 at 30 ug/disc after 48 hrs by paper disc diffusion assay; assay type: functional, organism-based
Bacillus subtilis = experiment: Antibacterial activity against Bacillus subtilis ACCC 11060 at 30 ug/disc after 24 hrs by paper disc diffusion assay; assay type: functional; conditions: ACCC 11060, 24 h, read-out: DIZ

DNA topoisomerase 2-alpha (Homo sapiens), sequence (P11388 whole entry, the tested form may be a part): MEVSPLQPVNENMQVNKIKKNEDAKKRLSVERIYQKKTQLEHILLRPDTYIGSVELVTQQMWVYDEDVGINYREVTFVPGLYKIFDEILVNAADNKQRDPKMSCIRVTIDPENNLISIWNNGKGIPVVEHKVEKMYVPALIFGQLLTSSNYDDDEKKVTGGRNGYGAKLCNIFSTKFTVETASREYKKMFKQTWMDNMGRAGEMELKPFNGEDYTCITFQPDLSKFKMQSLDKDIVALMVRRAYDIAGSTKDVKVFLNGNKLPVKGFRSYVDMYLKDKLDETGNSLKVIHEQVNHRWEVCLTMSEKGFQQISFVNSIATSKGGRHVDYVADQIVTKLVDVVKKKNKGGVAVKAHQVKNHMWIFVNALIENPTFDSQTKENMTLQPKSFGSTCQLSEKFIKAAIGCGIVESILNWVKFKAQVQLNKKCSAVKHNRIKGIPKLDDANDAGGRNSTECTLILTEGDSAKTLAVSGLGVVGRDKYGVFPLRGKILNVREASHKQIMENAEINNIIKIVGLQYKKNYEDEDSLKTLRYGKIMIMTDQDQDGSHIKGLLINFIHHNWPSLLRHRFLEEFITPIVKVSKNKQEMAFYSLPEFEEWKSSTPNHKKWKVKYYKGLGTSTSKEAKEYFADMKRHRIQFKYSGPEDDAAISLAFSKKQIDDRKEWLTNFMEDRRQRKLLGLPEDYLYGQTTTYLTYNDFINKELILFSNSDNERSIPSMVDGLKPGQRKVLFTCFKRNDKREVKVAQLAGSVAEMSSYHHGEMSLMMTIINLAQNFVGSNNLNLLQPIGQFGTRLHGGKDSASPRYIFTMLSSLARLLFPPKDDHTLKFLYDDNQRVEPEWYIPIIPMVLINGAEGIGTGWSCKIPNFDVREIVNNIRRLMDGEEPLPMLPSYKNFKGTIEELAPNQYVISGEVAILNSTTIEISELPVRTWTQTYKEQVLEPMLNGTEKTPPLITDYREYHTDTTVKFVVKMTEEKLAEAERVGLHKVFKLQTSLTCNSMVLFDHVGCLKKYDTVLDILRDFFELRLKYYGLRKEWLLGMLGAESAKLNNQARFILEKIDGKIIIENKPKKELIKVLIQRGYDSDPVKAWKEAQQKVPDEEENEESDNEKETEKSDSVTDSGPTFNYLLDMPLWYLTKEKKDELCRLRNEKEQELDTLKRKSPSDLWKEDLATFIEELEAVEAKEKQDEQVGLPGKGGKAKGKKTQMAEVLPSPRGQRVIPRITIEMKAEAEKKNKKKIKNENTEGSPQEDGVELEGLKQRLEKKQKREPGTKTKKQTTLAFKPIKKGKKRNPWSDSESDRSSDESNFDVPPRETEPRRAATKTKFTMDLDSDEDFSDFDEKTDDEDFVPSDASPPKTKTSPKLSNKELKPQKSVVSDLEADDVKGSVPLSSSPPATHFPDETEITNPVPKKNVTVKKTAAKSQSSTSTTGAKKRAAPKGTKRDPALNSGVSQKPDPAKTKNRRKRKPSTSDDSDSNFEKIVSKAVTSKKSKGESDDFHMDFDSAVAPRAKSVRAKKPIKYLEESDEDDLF

SMILES | inhibition (Bos taurus) | zone of inhibition at 30 µg/disc [1] [mm] | inhibition [2] | Activity [3] | Activity (Rhizoctonia solani) | Activity (Globisporangium ultimum) | zone of inhibition at 30 µg/disc (Bacillus subtilis) [mm]
COC(=O)[C@H]1O[C@@H](Oc2c(-c3ccccc3)cc(O)c(-c3ccccc3)c2O)[C@H](O)[C@@H](O)[C@@H]1O | Active | 12 | Active | inactive | inactive | inactive | 14
O=C(O)[C@H]1O[C@@H](Oc2c(-c3ccccc3)cc(O)c(-c3ccccc3)c2O)[C@H](O)[C@@H](O)[C@@H]1O |  | 11.2 | Active | inactive | inactive | inactive | 15.8
COc1c(-c2ccccc2)cc(O[C@@H]2O[C@H](C(=O)O)[C@@H](O)[C@H](O)[C@H]2O)c(-c2ccccc2)c1O |  |  | Active | inactive | inactive | inactive | 
O=C(O)[C@H]1O[C@@H](Oc2c(O)c(-c3ccccc3)c3scnc3c2-c2ccccc2)[C@H](O)[C@@H](O)[C@@H]1O | inactive |  | inactive | inactive | inactive | inactive | 
Cn1c(=O)sc2c(-c3ccccc3)c(O)c(O[C@@H]3O[C@H](C(=O)O)[C@@H](O)[C@H](O)[C@H]3O)c(-c3ccccc3)c21 | inactive |  | inactive | inactive | inactive | inactive | 
